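Interpolation was linear, between the two tested concentrations surrounding the appropriate level; five concentrations were tested over 48 hours in 96-well plates. Definition used: TGI = concentration required for complete inhibition of growth.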
Columns and labels:
Assay in all cases: DTP human tumour cell line panel, 48 h
786-0 renal = test system: 786-0 renal
A549 NSCLC = test system: A549 NSCLC
ACHN renal = test system: ACHN renal
CAKI-1 renal = test system: CAKI-1 renal
CCRF-CEM leukemia = test system: CCRF-CEM leukemia
COLO 205 colon = test system: COLO 205 colon
DLD-1 colon = test system: DLD-1 colon
DMS 114 small cell lung = test system: DMS 114 small cell lung
EKVX NSCLC = test system: EKVX NSCLC
HCC-2998 colon = test system: HCC-2998 colon
HCT-116 colon = test system: HCT-116 colon
HCT-15 colon = test system: HCT-15 colon
HL-60(TB) leukemia = test system: HL-60(TB) leukemia
HOP-18 NSCLC = test system: HOP-18 NSCLC
HOP-62 NSCLC = test system: HOP-62 NSCLC
HOP-92 NSCLC = test system: HOP-92 NSCLC
HT29 colon = test system: HT29 colon
IGROV1 ovarian = test system: IGROV1 ovarian
K-562 leukemia = test system: K-562 leukemia
KM12 colon = test system: KM12 colon
KM20L2 colon = test system: KM20L2 colon
LOX IMVI melanoma = test system: LOX IMVI melanoma
LXFL 529 NSCLC = test system: LXFL 529 NSCLC
M14 melanoma = test system: M14 melanoma
M19-MEL melanoma = test system: M19-MEL melanoma
MALME-3M melanoma = test system: MALME-3M melanoma
MOLT-4 leukemia = test system: MOLT-4 leukemia
NCI-H226 lung = test system: NCI-H226 lung
NCI-H23 lung = test system: NCI-H23 lung
NCI-H460 lung = test system: NCI-H460 lung
NCI-H522 lung = test system: NCI-H522 lung
OVCAR-3 ovarian = test system: OVCAR-3 ovarian
OVCAR-4 ovarian = test system: OVCAR-4 ovarian
OVCAR-5 ovarian = test system: OVCAR-5 ovarian
OVCAR-8 ovarian = test system: OVCAR-8 ovarian
RPMI-8226 leukemia = test system: RPMI-8226 leukemia
RXF 393 renal = test system: RXF 393 renal
RXF-631 renal = test system: RXF-631 renal
SF-268 CNS = test system: SF-268 CNS
SF-295 CNS = test system: SF-295 CNS
SF-539 CNS = test system: SF-539 CNS
SK-MEL-2 melanoma = test system: SK-MEL-2 melanoma
SK-MEL-28 melanoma = test system: SK-MEL-28 melanoma
SK-MEL-5 melanoma = test system: SK-MEL-5 melanoma
SK-OV-3 ovarian = test system: SK-OV-3 ovarian
SN12C renal = test system: SN12C renal
SNB-19 CNS = test system: SNB-19 CNS
SNB-75 CNS = test system: SNB-75 CNS
SR leukemia = test system: SR leukemia
SW-620 colon = test system: SW-620 colon
TK-10 renal = test system: TK-10 renal
U251 CNS = test system: U251 CNS
UACC-257 melanoma = test system: UACC-257 melanoma
UACC-62 melanoma = test system: UACC-62 melanoma
UO-31 renal = test system: UO-31 renal

COc1cc(C(=O)Nc2cccc3ccccc23)c(Br)c(OC)c1OC
TGI (786-0 renal): 3.1 µM | TGI (A549 NSCLC): > 100 µM | TGI (ACHN renal): > 100 µM | TGI (CAKI-1 renal): > 100 µM | TGI (CCRF-CEM leukemia): > 100 µM | TGI (COLO 205 colon): > 100 µM | TGI (DLD-1 colon): > 100 µM | TGI (DMS 114 small cell lung): > 100 µM | TGI (EKVX NSCLC): > 100 µM | TGI (HCC-2998 colon): > 100 µM | TGI (HCT-116 colon): > 100 µM | TGI (HCT-15 colon): > 100 µM | TGI (HL-60(TB) leukemia): 76.2 µM | TGI (HOP-18 NSCLC): 19.5 µM | TGI (HOP-62 NSCLC): > 100 µM | TGI (HOP-92 NSCLC): > 100 µM | TGI (HT29 colon): > 100 µM | TGI (IGROV1 ovarian): > 100 µM | TGI (K-562 leukemia): > 100 µM | TGI (KM12 colon): > 100 µM | TGI (KM20L2 colon): > 100 µM | TGI (LOX IMVI melanoma): > 100 µM | TGI (LXFL 529 NSCLC): > 100 µM | TGI (M14 melanoma): > 100 µM | TGI (M19-MEL melanoma): > 100 µM | TGI (MALME-3M melanoma): > 100 µM | TGI (MOLT-4 leukemia): > 100 µM | TGI (NCI-H226 lung): > 100 µM | TGI (NCI-H23 lung): > 100 µM | TGI (NCI-H460 lung): > 100 µM | TGI (NCI-H522 lung): > 100 µM | TGI (OVCAR-3 ovarian): > 100 µM | TGI (OVCAR-4 ovarian): > 100 µM | TGI (OVCAR-5 ovarian): > 100 µM | TGI (OVCAR-8 ovarian): 13.6 µM | TGI (RPMI-8226 leukemia): > 100 µM | TGI (RXF 393 renal): > 100 µM | TGI (RXF-631 renal): > 100 µM | TGI (SF-268 CNS): > 100 µM | TGI (SF-295 CNS): > 100 µM | TGI (SF-539 CNS): > 100 µM | TGI (SK-MEL-2 melanoma): > 100 µM | TGI (SK-MEL-28 melanoma): > 100 µM | TGI (SK-MEL-5 melanoma): > 100 µM | TGI (SK-OV-3 ovarian): > 100 µM | TGI (SN12C renal): > 100 µM | TGI (SNB-19 CNS): > 100 µM | TGI (SNB-75 CNS): > 100 µM | TGI (SR leukemia): > 100 µM | TGI (SW-620 colon): > 100 µM | TGI (TK-10 renal): > 100 µM | TGI (U251 CNS): > 100 µM | TGI (UACC-257 melanoma): > 100 µM | TGI (UACC-62 melanoma): > 100 µM | TGI (UO-31 renal): 86.1 µM

— PubChem BioAssay (NCI)
